The source of these data is ChEMBL document CHEMBL1159242, “Studies on the inhibitory effects of caffeoylquinic acids on monocyte migration and superoxide ion production” (J Nat Prod, 1995).

Structures are written as SMILES. Calls of active or inactive are those of the source. The calls are words filed in the database; no cut-off is given here.

In series [1] the test system is Monocyte. Kind of series: Inhibition of O2- radical production in zymosan-stimulated healthy human monocyte measured after 45 mins at 37 degC. The format is functional, cell-based.
In series [2] the test system is Monocyte. Kind of series: Inhibition of O2- radical production in zymosan-stimulated healthy human monocyte assessed as increase in H2O production after 1 hr at 37 degC. The format is functional, cell-based.
Series [3] in a line: Cytotoxicity against human monocytes measured by LDH activity. The format is cell-based. The settings on record: monocyte.
Series [4] concerns Monocyte. Kind of series: Inhibition of healthy human monocyte migration assessed as chemotactic index at 0.1 pM after 45 mins. Format: functional, cell-based.
In series [5] the test system is Monocyte. Kind of series: Inhibition of healthy human monocyte migration assessed as chemotactic index at 0.001 to 0.00001 pM after >45 mins. The format is functional, cell-based.
Series [6] has as its system Monocyte. Kind of series: Inhibition of healthy human monocyte migration assessed as chemotactic index at 0.001 to 0.00001 pM. Format: functional, cell-based.
In series [7] the test system is Monocyte. Kind of series: Inhibition of O2- radical production in zymosan-stimulated healthy human monocyte measured after 1 hr at 37 degC. Format: functional, cell-based.
Series [8] relates to Monocyte. Kind of series: Inhibition of healthy human monocyte migration assessed as chemotactic index at 0.01 nM after 45 mins. The format is functional, cell-based.
Series [9] deals with Monocyte. Kind of series: Inhibition of O2- radical production in zymosan-stimulated healthy human monocyte assessed as inhibition H2O2 production after 1 hr at 37 degC. Format: functional, cell-based.
The subject of series [10] is Monocyte. Kind of series: Inhibition of healthy human monocyte migration assessed as chemotactic index at 100 nM after 45 mins. The format is functional, cell-based.

For `O=C(/C=C/c1ccc(O)c(O)c1)O[C@@H]1C[C@](O)(C(=O)O)C[C@@H](OC(=O)/C=C/c2ccc(O)c(O)c2)[C@H]1O`, the outcome with Monocyte [1], in the series on Monocyte [2], in the series with Monocyte [4], in the series on Monocyte [6], in the series with Monocyte [8] and with Monocyte [9] was Active. Further, the values for the Activity result (in [3]; in the series on Monocyte [7]) were “Non-toxic” and “Dose-dependent effect”, respectively. Also, the outcome with Monocyte [5] was inactive.

For `O=C(/C=C/c1ccc(O)c(O)c1)O[C@H]1[C@H](O)C[C@](O)(C(=O)O)C[C@H]1OC(=O)/C=C/c1ccc(O)c(O)c1`, the Activity result was “Non-toxic” in series [3] and “Dose-dependent effect” with Monocyte [7]. Further, in the series on Monocyte [10], the result was inactive.

For `O=C(/C=C/c1ccc(O)c(O)c1)O[C@@H]1C[C@](O)(C(=O)O)C[C@@H](OC(=O)/C=C/c2ccc(O)c(O)c2)[C@H]1OC(=O)/C=C/c1ccc(O)c(O)c1`, in series [3], the Activity result is “Non-toxic”.
